The record followed here is ChEMBL document CHEMBL1201862, “PubChem BioAssay data set” (2004).

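Method: 48-hour compound exposure of cells in 96-well plates, five concentrations, linear interpolation of endpoints. At the GI50, growth is halved.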 The source made the active and inactive calls. Rule as the data show it: active = GI50 up to about 1.1 µM and inactive = higher.

Test systems include CCRF-CEM; DMS-114; HCC 2998; HOP-92; Hs-578T; M19-MEL; MOLT-4; NCI-H226; NCI-H23; NCI-H522; OVCAR-4; OVCAR-5; RXF 393; SK-OV-3; SN12C; SNB-19; SNB-75; TK-10; U-251; UACC-257.
Common to all, as to assay: DTP human tumour cell line panel, 48 h

The GI50 is the concentration that inhibits growth by half. With `CCNCC(=O)O[C@]1(CC)C(=O)OCc2c1cc1n(c2=O)Cc2cc3ccccc3nc2-1`, the GI50 with CCRF-CEM was 0.0142 µM (active); with DMS-114, 0.0857 µM (active); with HCC 2998 it was 1.04 µM (active); in the test with HOP-92, 1.16 µM (inactive); in the test with Hs-578T it was 25.8 µM (inactive); in the test with M19-MEL, 0.394 µM (active). The GI50 was 0.0195 µM (active) with MOLT-4; 0.115 µM (active) in the test with NCI-H226; 0.0849 µM (active) in the test with NCI-H23; 0.221 µM (active) in the test on NCI-H522; 2.25 µM (inactive) with OVCAR-4; 0.811 µM (active) in the test with OVCAR-5. Further, the GI50 in the test with RXF 393 was 0.264 µM (active); in the test on SK-OV-3, 0.258 µM (active); in the test with SN12C, 0.0619 µM (active); with SNB-19 it was 0.108 µM (active); in the test with SNB-75, 0.284 µM (active); in the test on TK-10 it was 7.4 µM (inactive). Further, the concentration for 50% growth inhibition (GI50) is 0.0614 µM (active) in the test with U-251 and 0.585 µM (active) in the test on UACC-257.

As to `COc1c(O)c(O)cc2c1-c1ccc(OC)c(=O)cc1C(NC(C)=O)CC2` (stereo not given), the GI50 is 3.72 µM (inactive) in the test with CCRF-CEM; 2.49 µM (inactive) in the test on DMS-114; 5.38 µM (inactive) in the test on HCC 2998; 2.7 µM (inactive) with HOP-92; 2.66 µM (inactive) with Hs-578T; 6.12 µM (inactive) in the test on M19-MEL. The GI50 in the test with MOLT-4 was 6.24 µM (inactive); in the test on NCI-H226 it was 21 µM (inactive); in the test on NCI-H23, 3.95 µM (inactive); with NCI-H522, 1.84 µM (inactive); in the test with OVCAR-4, 22.6 µM (inactive); in the test on OVCAR-5 it was 40 µM (inactive). Also, the GI50 in the test on RXF 393 is 2.84 µM (inactive); with SK-OV-3, 5.35 µM (inactive); in the test on SN12C, 8.95 µM (inactive); in the test with SNB-19, 5.51 µM (inactive); in the test with SNB-75, 4.24 µM (inactive); in the test with TK-10 it was 65.2 µM (inactive). Moreover, the GI50 in the test with U-251 was 4.03 µM (inactive); in the test on UACC-257, 7.26 µM (inactive).

Consider `O=C1NC(=S)NC(=O)C1=CC1CC1`, for which the GI50 in the test on CCRF-CEM, in the test with DMS-114, with HCC 2998, with HOP-92, with M19-MEL and in the test on MOLT-4 was > 100 µM (inactive) throughout. Moreover, the GI50 in the test on NCI-H226, in the test on NCI-H23, in the test with NCI-H522, in the test with OVCAR-4, in the test on OVCAR-5 and with RXF 393 was > 100 µM (inactive) in each case. Besides, the GI50 with SK-OV-3 is > 100 µM (inactive); in the test with SN12C it was > 100 µM (inactive); in the test with SNB-19, > 100 µM (inactive); with SNB-75, 46.3 µM (inactive); with TK-10 it was > 100 µM (inactive); with U-251 it was > 100 µM (inactive). Further, in the test with UACC-257, the GI50 was > 100 µM (inactive).

Regarding `COc1ccccc1NC(=O)C1=C(C)NC(C)=C(C(=O)Nc2ccccc2OC)C1c1ccc(N(C)C)cc1`, the GI50 in the test with CCRF-CEM was 19.3 µM (inactive); in the test with DMS-114, 21.8 µM (inactive); in the test on HCC 2998 it was 14.5 µM (inactive); in the test with HOP-92, 6.52 µM (inactive); in the test on M19-MEL, 31.5 µM (inactive); with MOLT-4, 18.8 µM (inactive). The GI50 was 19.6 µM (inactive) in the test on NCI-H226; 21.3 µM (inactive) in the test on NCI-H23; 17.6 µM (inactive) in the test on NCI-H522; 29.6 µM (inactive) in the test on OVCAR-4; 39.2 µM (inactive) with OVCAR-5; 21.7 µM (inactive) in the test with RXF 393. Also, the GI50 with SK-OV-3 is 38.7 µM (inactive); in the test with SN12C it was 26.9 µM (inactive); in the test with SNB-19, 55.8 µM (inactive); in the test with SNB-75, 30.8 µM (inactive); with TK-10, 34.8 µM (inactive); in the test on U-251 it was 30.4 µM (inactive). Also, the GI50 in the test with UACC-257 was 27.9 µM (inactive).

Turning to `Cc1ccccc1NC(=O)c1c(C)oc2c1C(=O)c1ccccc1C2=O`, the GI50 was 19.4 µM (inactive) with CCRF-CEM; 24.7 µM (inactive) in the test on DMS-114; 51.5 µM (inactive) in the test on HCC 2998; 20.3 µM (inactive) in the test on HOP-92; 8.63 µM (inactive) in the test with M19-MEL; 20.1 µM (inactive) in the test on MOLT-4. The GI50 was > 38.7 µM (inactive) in the test with NCI-H226; 29.7 µM (inactive) in the test with NCI-H23; 16.5 µM (inactive) with NCI-H522; 2.09 µM (inactive) in the test on OVCAR-4; > 100 µM (inactive) in the test with OVCAR-5; > 100 µM (inactive) in the test with RXF 393. The GI50 in the test with SK-OV-3 was > 100 µM (inactive); in the test on SN12C, > 53.7 µM (inactive); with SNB-19, 35.6 µM (inactive); with SNB-75, 39.7 µM (inactive); in the test with TK-10, > 100 µM (inactive); in the test on U-251, 7.89 µM (inactive). Moreover, the GI50 in the test on UACC-257 was 21.4 µM (inactive).

Regarding `N=C(N)SCc1cccc([N+](=O)[O-])c1`, the GI50 in the test with CCRF-CEM was 27.7 µM (inactive); in the test on DMS-114, 23.6 µM (inactive); in the test on HCC 2998 it was 34.1 µM (inactive); in the test with HOP-92, 20.9 µM (inactive); with M19-MEL, 35.3 µM (inactive); in the test on MOLT-4, 32.7 µM (inactive). Also, the GI50 in the test on NCI-H226 is 24.3 µM (inactive); in the test on NCI-H23, 30.5 µM (inactive); in the test on NCI-H522, 13.5 µM (inactive); in the test on OVCAR-4 it was 30.3 µM (inactive); with OVCAR-5, 48.2 µM (inactive); in the test with RXF 393 it was 24.8 µM (inactive). Further, the GI50 was > 57.1 µM (inactive) in the test with SK-OV-3; 37 µM (inactive) in the test with SN12C; > 10 µM (inactive) with SNB-19; 30.3 µM (inactive) with SNB-75; 44.7 µM (inactive) in the test on U-251; 27.2 µM (inactive) with UACC-257.
